Source: ChEMBL document CHEMBL1201862, “PubChem BioAssay data set” (2004)
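48-hour exposure; five concentrations; linearly interpolated endpoints. GI50: concentration for 50% inhibition of growth.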 Calls of active or inactive are those of the source. Rule as the data show it: active = GI50 up to about 1.1 µM and inactive = higher.

Columns and labels:
Test in all cases: NCI-60 cell line screen, 48 h
NCI/ADR-RES = test system: NCI/ADR-RES
SF-295 = test system: SF-295
LOX IMVI = test system: LOX IMVI
SNB-75 = test system: SNB-75
SK-OV-3 = test system: SK-OV-3
SNB-19 = test system: SNB-19
HOP-62 = test system: HOP-62
EKVX = test system: EKVX
CAKI-1 = test system: CAKI-1
786-0 = test system: 786-0
M14 = test system: M14
COLO 205 = test system: COLO 205
HL-60 = test system: HL-60
SW-620 = test system: SW-620
A549 = test system: A549
ACHN = test system: ACHN
MDA-MB-435 = test system: MDA-MB-435
BT-549 = test system: BT-549
SF-268 = test system: SF-268
UACC-62 = test system: UACC-62

Measured: GI50

O=c1c2c(c1=O)C1(SCCCS1)c1cc(Cl)ccc1O2
inactive: NCI/ADR-RES > 100 µM | SF-295 > 100 µM | LOX IMVI > 100 µM | SNB-75 > 100 µM | SK-OV-3 > 100 µM | SNB-19 > 100 µM | HOP-62 > 100 µM | EKVX > 100 µM | CAKI-1 > 100 µM | 786-0 > 100 µM | M14 > 100 µM | COLO 205 > 100 µM | HL-60 > 100 µM | SW-620 > 100 µM | A549 > 100 µM | ACHN > 100 µM | MDA-MB-435 > 100 µM | BT-549 > 100 µM | SF-268 > 100 µM | UACC-62 > 100 µM

O=C1N(c2ccccc2)C(=S)/C(=C/c2ccc(Cl)cc2)N1c1ccc(Cl)cc1
inactive: NCI/ADR-RES 77.3 µM | SF-295 38.4 µM | LOX IMVI 22.2 µM | SNB-75 12.6 µM | SK-OV-3 27.1 µM | SNB-19 48.4 µM | HOP-62 32.2 µM | EKVX 38.5 µM | CAKI-1 > 100 µM | 786-0 23.2 µM | M14 61.9 µM | COLO 205 27.5 µM | HL-60 32.5 µM | SW-620 36.1 µM | A549 > 100 µM | ACHN 19.1 µM | MDA-MB-435 35.6 µM | BT-549 44.4 µM | SF-268 46.9 µM | UACC-62 15.8 µM

CC1OC(O[C@H]2C3C=CO[C@@H](OC4OC(CO)C(O)C(O)C4O)C3[C@@]3(COC(=O)/C=C/c4ccccc4)O[C@@H]23)C(O)C(O)C1O (stereo not given in full)
inactive: NCI/ADR-RES > 100 µM | SF-295 > 100 µM | LOX IMVI > 100 µM | SNB-75 > 100 µM | SK-OV-3 > 100 µM | SNB-19 > 100 µM | HOP-62 > 100 µM | EKVX > 100 µM | CAKI-1 > 100 µM | 786-0 > 100 µM | M14 > 100 µM | COLO 205 > 100 µM | HL-60 > 100 µM | SW-620 > 100 µM | A549 > 100 µM | ACHN > 100 µM | MDA-MB-435 > 100 µM | BT-549 > 100 µM | SF-268 > 100 µM | UACC-62 > 100 µM

CC1(C)CN=C(Nc2ccc(Cl)cc2)S1
inactive: NCI/ADR-RES 76.6 µM | SF-295 > 100 µM | LOX IMVI 78.3 µM | SNB-75 70.8 µM | SK-OV-3 > 100 µM | SNB-19 > 100 µM | HOP-62 > 100 µM | EKVX 64 µM | CAKI-1 > 100 µM | 786-0 > 100 µM | M14 > 100 µM | COLO 205 > 100 µM | HL-60 30.5 µM | SW-620 > 100 µM | A549 > 100 µM | ACHN > 100 µM | MDA-MB-435 > 100 µM | BT-549 > 100 µM | SF-268 > 100 µM | UACC-62 78.7 µM

CN1C(=O)C(CC(=O)O)NC1=S (stereo not given)
inactive: NCI/ADR-RES > 100 µM | SF-295 > 100 µM | LOX IMVI > 100 µM | SNB-75 > 100 µM | SK-OV-3 > 100 µM | SNB-19 > 100 µM | HOP-62 > 100 µM | EKVX 56.6 µM | CAKI-1 > 100 µM | 786-0 > 100 µM | M14 > 100 µM | COLO 205 > 100 µM | HL-60 > 100 µM | SW-620 > 100 µM | A549 > 100 µM | ACHN > 100 µM | MDA-MB-435 > 100 µM | BT-549 > 100 µM | SF-268 > 100 µM | UACC-62 > 100 µM
